Experimental data as given in article PMC11697777, “How ligands modulate the gastric H,K-ATPase activity and its inhibition by tegoprazan” (The Journal of Biological Chemistry, 2024).
Where two headings read alike, the source gives them in different places.

Molecular target: T1, gastric H,K-ATPase (Sus scrofa, UniProt P19156)
T1 construct: We prepared H,K-ATPase (EC 7.2.2.19)-enriched membrane vesicles according to Sachs et al; from tissue; host or cells: gastric membrane vesicles
Experiment: H,K-ATPase activity (Pi release from ATP) inhibition, steady-state kinetic analysis
Format: biochemical, hog
Settings: for IC50: 10 mM KCl, read-out: K0.5 for inhibition of ATPase activity; for Kd: fit of model III (binding to E2P and E1ATP), 37 °C
Procedure: We prepared H,K-ATPase (EC 7.2.2.19)-enriched membrane vesicles according to Sachs et al. ([36]), with slight modifications. The number of nucleotide sites measured under optimal conditions (2.2 mM ATP, 4 mM MgCl2, 0.25 mM EDTA in 25 mM imidazole–HCl, pH 7.4 at 25 °C) was 1.4 nmol per mg of protein. This preparation is essentially free of contamination with Na,K-ATPase, as evidenced by the lack of ouabain-sensitive activity. 0.4 to 0.6 mg alamethicin per milligram protein was used to permeabilize the vesicles.
ATP hydrolysis by H,K-ATPase was measured by following the time course of Pi release at 37 °C; linearity was always checked in order to ensure initial rate conditions. Pi concentration was determined according to the method described by Baginski et al. ([37]) Incubations were performed at 37 °C in media containing 8 μg protein ml^−1, 2 mM ATP, 4 mM MgCl2, and 0.25 mM EDTA in 20 mM imidazole – 20 mM Tris (varying pH) in a final volume of 0.25 ml. KCl concentrations varied between 0 and 100 mM, using choline chloride to adjust total monovalent salt concentration to 150 mM. Reaction blanks were determined by measuring ATP hydrolysis in media containing vanadate. For experiments at variable pH, a buffer combination of 20 mM imidazole-HCl and 20 mM Tris–HCl was used. Tegoprazan and SCH28080 were dissolved in DMSO. The final DMSO concentration in the reaction media was 1%.
were fitted to the data of ATPase activity by nonlinear regression based on the Gauss–Newton algorithm by commercial programs ([38]). Kis parameters are apparent dissociation constants expressed in concentration units, whereas the ais parameters are coefficients with units of activity. A methodical exploration of the equation that best fits each set of results was performed. We first determined the degree of the polynomials in the numerator and the denominator (considering the restriction of n ≤ d and m ≤ d to conform to steady-state equations for enzymes) and then evaluated the contribution of terms of intermediate degree. The goodness of fit of a given equation to the experimental results was evaluated by the AICc ([39]) defined as(5) AICc=N·ln(SS/N)+2·(K+1)·N/(N−K−2) with N: number of data, K: number of parameters, and SS: sum of weighted square residual errors. This criterion allows one to select among multiple equations, the one that best describes the behavior of the experimental data using the least number of parameters, that is the lower value of AICc.
The equations of activity as a function of ligands for each kinetic model were attained using the Mathematica for Windows program. To determine the parameters that will be used to simulate the data, the rate constants and pKa values were fitted to the results using a procedure based on the Gauss–Newton algorithm until the SD of the residual errors reaches a minimal value.

T1 sequence (P19156 2-1034 limits assumed): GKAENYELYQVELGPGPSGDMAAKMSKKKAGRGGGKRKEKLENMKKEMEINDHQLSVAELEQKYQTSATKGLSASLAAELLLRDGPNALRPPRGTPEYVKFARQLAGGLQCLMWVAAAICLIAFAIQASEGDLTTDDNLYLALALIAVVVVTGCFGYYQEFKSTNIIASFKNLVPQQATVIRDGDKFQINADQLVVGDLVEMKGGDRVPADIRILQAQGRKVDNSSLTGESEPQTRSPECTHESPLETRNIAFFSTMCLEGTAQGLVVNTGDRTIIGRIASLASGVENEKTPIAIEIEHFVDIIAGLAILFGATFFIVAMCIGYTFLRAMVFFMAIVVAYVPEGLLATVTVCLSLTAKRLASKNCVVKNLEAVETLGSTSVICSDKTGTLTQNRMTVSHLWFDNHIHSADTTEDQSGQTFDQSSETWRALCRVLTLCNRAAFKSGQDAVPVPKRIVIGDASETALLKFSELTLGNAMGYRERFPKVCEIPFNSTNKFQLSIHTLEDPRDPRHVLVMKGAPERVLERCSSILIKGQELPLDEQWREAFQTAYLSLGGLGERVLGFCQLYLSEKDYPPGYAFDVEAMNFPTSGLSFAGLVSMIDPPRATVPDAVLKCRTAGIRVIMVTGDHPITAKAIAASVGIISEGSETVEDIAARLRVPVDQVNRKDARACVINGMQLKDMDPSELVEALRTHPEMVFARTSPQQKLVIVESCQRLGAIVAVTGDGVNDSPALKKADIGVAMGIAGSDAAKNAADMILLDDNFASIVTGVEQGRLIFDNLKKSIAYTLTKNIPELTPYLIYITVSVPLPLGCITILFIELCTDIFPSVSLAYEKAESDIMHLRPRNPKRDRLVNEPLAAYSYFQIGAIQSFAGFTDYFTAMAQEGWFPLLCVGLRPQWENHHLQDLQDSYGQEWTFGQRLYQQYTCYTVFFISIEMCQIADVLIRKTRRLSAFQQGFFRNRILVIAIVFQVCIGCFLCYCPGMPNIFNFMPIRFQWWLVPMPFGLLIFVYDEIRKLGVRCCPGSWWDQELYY
T1 sequence (P18434 whole entry partner): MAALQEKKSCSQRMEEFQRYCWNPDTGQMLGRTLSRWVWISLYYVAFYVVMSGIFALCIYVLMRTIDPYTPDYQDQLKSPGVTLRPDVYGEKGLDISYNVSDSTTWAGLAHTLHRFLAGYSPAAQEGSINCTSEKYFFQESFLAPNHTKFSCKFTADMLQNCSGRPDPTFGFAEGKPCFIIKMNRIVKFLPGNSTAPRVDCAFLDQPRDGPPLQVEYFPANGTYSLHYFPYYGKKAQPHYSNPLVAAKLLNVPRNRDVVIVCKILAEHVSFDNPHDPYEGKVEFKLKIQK

## Cc1nc2c(O[C@H]3CCOc4cc(F)cc(F)c43)cc(C(=O)N(C)C)cc2[nH]1 [tegoprazan, (S)-4-((5,7-difluorochroman-4-yl)oxy)-N,N,2-trimethyl−1Hbenzo[d]imidazole-6-carboxamide]
[K+] 0-15 mM, pH 7.2
  effect of inhibitor on K0.5 for potassium (Equation 3): increase in K0.5
  effect of inhibitor on Vmax (Equation 3): decrease in Vmax
[K+] 0-75 mM
  effect of inhibitor on K1, apparent high-affinity dissociation constant for K+ (Equation 1): increase in K1
  effect of inhibitor on K2, apparent low-affinity dissociation constant for K+ (Equation 1): slight increase
  effect of inhibitor on a1, theoretical maximal activity (Equation 1): decreases as a function of the inhibitor concentration
Fit of model II (binding to E2P and E2KATP), [K+] 0-75 mM
  Kii, equilibrium constant for low-affinity binding (E2KATP), model II: 3.55 µM
Fit of model II (binding to E2P and E2KATP), [K+] 0-75 mM, read-out: Ki, equilibrium constant for high-affinity binding (E2P), model II
  Ki: 410 nM
pH 6.2
  IC50: 890 ± 40 nM
pH 7.2
  IC50: 3250 ± 290 nM
pH 7.2, [K+] 0-75 mM, read-out: apparent Kd / apparent affinity constant, high-affinity binding (Ki) to E2P, model III
  Kd: 560 ± 40 nM
pH 7.2, [K+] 0-75 mM, read-out: apparent Kd / apparent affinity constant, low-affinity binding (Kii) to E1ATP, model III
  Kd: 2700 ± 240 nM
